Assay results as given in patent US20240315987A1, “ORAL CO[…] COMBINED WITH S[…] I[…] FOR USE IN THE TREATMENT, CONTROL OR PREVENTION OF DEPRESSIVE DISORDERS” (N[…] LTD., priority 2020, published 2024).
Like-named read-outs stand apart in the source and are kept apart here.

Columns and labels:
[1] = molecular target: T1, α7 nicotinic acetylcholine receptor (Rattus norvegicus, UniProt Q05941); conditions: cited from earlier work
T1 construct: expressed in transfected cells; host or cells: KXa7R1 cell line (HEK293)

[2] = test system: Treatment Resistant Depression (TRD); experiment: Example 5 pilot study: combined subcutaneous/IV and oral ketamine in TRD patients; assay type: in vivo, human; conditions: for mean MADRS reduction: TRD patients
Protocol: Six patients diagnosed with Treatment Resistant Depression (TRD) received a combined ketamine treatment as outlined below. Their mean age was 53.1 (SD: 9.3). Five of the patients had previously attempted suicide and been admitted to a psychiatric unit. Three patients had received electroconvulsive therapy (ECT).
Five of the patients received oral ketamine of dose range 120-240 mg, (for example three to six capsules of 40 mg/day as described herein), once a week, four days after ketamine subcutaneous (0.5 mg-1.0 mg/kg) was administered once a week.
One patient received ketamine intravenously once a week and oral ketamine twice a week of dose 240 mg (for example, six capsules of 40 mg/day as described herein) each time.
The patients received on average 30.8 weeks (SD:7.7) ketamine subcutaneous-oral treatment and 10.6 weeks (SD: 6.7) ketamine IV-oral treatment.
This pilot study was conducted to explore the safety, tolerability, and potential clinical effectiveness of a treatment with repeated, low-dose oral ketamine capsules.

depression = conditions: oral, 2019 systematic review; cited from earlier work
[3] = test system: depressive disorder patients; experiment: Example 6: subcut/IV ketamine with supplemental oral dose, then oral only; assay type: in vivo, human
Protocol: Patients (n=12 patients) were administered a ketamine-based treatment comprising a subcut/IV ketamine dose with a supplemental oral dose (as described herein).

[4] = test system: Major Depression Disorder (MDD) and Treatment-resistant depression (TRD); conditions: single IV administration, subanaesthetic dose 0.5 mg/kg; cited from earlier work
[5] = cited from earlier work
mice = conditions: cited from earlier work

T1 sequence (Q05941 23-502): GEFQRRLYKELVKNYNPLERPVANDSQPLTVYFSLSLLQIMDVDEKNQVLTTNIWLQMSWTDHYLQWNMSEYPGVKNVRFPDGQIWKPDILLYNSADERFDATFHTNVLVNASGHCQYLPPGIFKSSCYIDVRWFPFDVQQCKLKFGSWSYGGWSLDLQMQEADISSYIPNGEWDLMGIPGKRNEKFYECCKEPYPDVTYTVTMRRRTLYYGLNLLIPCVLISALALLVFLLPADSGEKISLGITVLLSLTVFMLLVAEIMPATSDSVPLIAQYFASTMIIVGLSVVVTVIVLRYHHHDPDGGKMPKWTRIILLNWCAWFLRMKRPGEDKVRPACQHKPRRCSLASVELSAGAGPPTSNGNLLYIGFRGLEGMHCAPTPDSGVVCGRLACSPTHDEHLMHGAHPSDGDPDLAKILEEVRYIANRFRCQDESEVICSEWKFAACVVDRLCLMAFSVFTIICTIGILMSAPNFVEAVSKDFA

NC1(c2ccccc2Cl)CCCC(O)C1=O (stereo not shown) [hydroxynorketamine]
potency as negative allosteric modulator ([1]; KXa7R1 cell line): subanaesthetic and nanomolar potencies

CNC1(c2ccccc2Cl)CCCCC1=O (stereo not shown) [ketamine, Ketamine]
response and tolerability of the treatment regimens ([2]; after 45 to 75 minutes after dosing): good response and tolerability in all patients | mean MADRS reduction ([2]; between first and last treatment, subcutaneous-oral ketamine treatment): −5.7 (SD: 11.0) | mean MADRS reduction ([2]; intravenous-oral ketamine treatment): −5.7 (SD: 10.0) | duration of significant improvement of cognition ([2]; one patient, ketamine IV once a week and oral ketamine twice a week 240 mg): 24 to 36 h | severity of adverse events ([2]; repeated, low-dose oral ketamine capsules): Most adverse events were moderate and self-limiting | ketamine cravings or urge to use beyond the prescribed period ([2]; six TRD patients): No participant reported ketamine cravings | onset of moderate discomforts or moderate increase of pre-existing discomforts, reports ([2]; six TRD patients): 32 times | positive effects (reduction of suicidal thoughts, improved mood, cognition, increased energy) ([2]; six TRD patients): Most of the participants reported positive effects | premature discontinuation of treatment ([2]; six TRD patients): none of the participants discontinued treatment prematurely | serious side effects ([2]; six TRD patients): No serious side effects occurred | tolerability of treatment with oral ketamine ([2]; six TRD patients): well-tolerated | antidepressant effects (depression): significant antidepressant effects | tolerability (depression): good overall tolerability | response to oral ketamine after stopping initial IV or subcutaneous ketamine treatment ([3]; especially oral twice a week at 160-240 mg): respond very well | remission levels after switch to oral only treatment ([3]; n=12 patients, oral only): maintained their remission levels at the same level as when administered the combination treatment | remission via MADRS scores ([3]; n=12 patients, subcut/IV ketamine dose with supplemental oral dose): ~50% | activity at the same concentrations ([1]; KXa7R1 cell line, <1 μM): inactive | duration of antidepressant effect [4]: 4 to 7 days | time to antidepressant action [4]: ≤ 24 h | Bioavailability ([5]; intranasally): 8-50% | time to peak plasma concentrations ([5]; intravenously): within a minute | Bioavailability ([5]; oral route): 17-20% | time to peak plasma concentrations ([5]; orally): 30 min | Bioavailability ([5]; rectally): up to 30% | Bioavailability ([5]; sublingually): up to 30%

NC1(c2ccccc2Cl)CCCCC1=O (stereo not shown) [norketamine]
potency as negative allosteric modulator ([1]; KXa7R1 cell line): subanaesthetic and nanomolar potencies | plasma levels of metabolite relative to ketamine ([5]; following oral administration of ketamine): three times higher than ketamine

N[C@@]1(c2ccccc2Cl)CCC[C@@H](O)C1=O [(2R,6R)-HNK]
antidepressant-like effects (mice): ketamine-type antidepressant-like effects

NC1(c2ccccc2Cl)CCC=CC1=O (stereo not shown) [dehydronorketamine]
IC50 ([1]; KXa7R1 cell line (HEK293 cells transfected with rat nicotinic acetylcholine receptor genes)): 55 nM | potency as negative allosteric modulator ([1]; KXa7R1 cell line): subanaesthetic and nanomolar potencies
